Experimental data taken from patent US5230998A, “Method for the prescreening of drugs targeted to the V3 hypervariable loop of the HIV-1 envelope glycoprotein gp 120” (priority 1991, dated 1993).
“Also recorded” adds a separate entry of the source.

What was measured:
CD4 receptor = conditions: literature; listed as ATA; cited from earlier work
HIV-1 = HIV-1 infection marker: viral DNA in ATA-treated cultures; type: cell-based
From the text: (§1) The combined effects of AZT and ATA, and other compounds shown to be effective in Table 1, hereinbelow, against HIV-1 are also contemplated by the present invention, since synergistic drug combinations would offer means for alleviating toxicity due to AZT, observed in clinical settings. Contemplated combinations include, for example, AZT+ATA, AZT+chlorin e6; AZT+deuteroporphyrin IX, 2,4(4,2) hydroxyethyvinyl; and AZT+meso-tetra(4-carboxyphenyl)porphine.

[1] = target: recombinant gp120 and recombinant CD4 (UniProt P01730+P03375); experiment: Inhibition of the reaction between recombinant gp120 and recombinant CD4; type: binding; conditions: complete inhibition only at high concentrations; read-out: concentration for complete inhibition of the gp120-CD4 reaction
Procedure: However, ATA is an inefficient inhibitor of the reaction between recombinant gp120 and recombinant CD4, and complete inhibition of this reaction can be observed only at high concentrations of ATA (≈1 mg/ml).

U937 cells = experiment: Toxicity for cells; type: cell-based; conditions: at the concentrations used
From the text: as §1

MT-2 cells = experiment: Toxicity for cells; type: cell-based; conditions: at the concentrations used
From the text: as §1

H9 cells = experiment: Toxicity for cells; type: cell-based; conditions: at the concentrations used
From the text: as §1

[2] = test system: gp120 expressed on the surface of HIV-1-infected cells; conditions: literature; cited from earlier work
BH 10 peptide = target: T1, BH 10 peptide (Human immunodeficiency virus type 1 BH10, UniProt P03375); experiment: Attachment of ATA to V3 hypervariable loop peptides of distinct HIV-1 isolates (FIG. 4B); type: binding, HIV-1 BH 10
T1 construct: cut from Env gp160
Procedure: FIG. 4 comprises bar graphs depicting the interaction of aurintricarboxylic acid (ATA) with full length V3 hypervariable loop peptides from gp120 of distinct HIV-1 isolates (clones). FIG. 4A: Inhibitory effects of ATA (50 μg/ml) on the reaction between peptide-coated wells and homologous anti-peptide antisera (diluted 1:1,000). FIG. 4B: attachment of ATA to distinct V3 hypervariable loop peptide-coated wells as determined by double antibody RIA using rabbit antiserum against ATA.
ATA was also added to a control peptide, (518-542), and to wells coated with gelatin only. After incubation for 4 hours at 20° C., excess ATA was removed, the wells were washed with TS and attached ATA was determined by double-antibody RIA using serial dilutions of the anti-ATA antiserum. Similar tests were carried out with serum from the same rabbit before immunization with the ATA-BSA conjugate; the corresponding results (100-450 cpm) were subtracted from cpm corresponding to RIA results obtained with the anti-ATA antiserum. For additional assays aimed at determining the binding of ATA to synthetic peptides from gp120 and gp41 of HIV-1 BH 10 and to V3 hypervariable loop peptides from 20 additional HIV-1 isolates, anti-ATA antiserum was used at a final dilution of 1:800.

O=C(O)C1=CC(=C(c2ccc(O)c(C(=O)O)c2)c2ccc(O)c(C(=O)O)c2)C=CC1=O [substance #122, aurintricarboxylic acid]
inhibition of the interaction with CD4 receptor (CD4 receptor): inhibited the interaction of the CD4 receptor for HIV-1; also recorded: inhibiting the interaction between HIV-1 virions and cellular CD4 receptors
viral DNA in treated cultures (HIV-1): almost undetectable
IC100 [1]: ~1000 µg/mL
toxicity for U937 cells (U937 cells): lack of toxicity
toxicity for MT-2 cells (MT-2 cells): lack of toxicity
toxicity for H9 cells (H9 cells): lack of toxicity
inhibition of the reaction of gp120 on infected cells with monoclonal anti-gp120 antibodies [2]: inhibit the reaction of gp120 expressed on the surface of HIV-1-infected cells with monoclonal anti-gp120 antibodies
ATA binding to V3 peptide (BH 10 peptide): bound the highest levels of ATA
